{"source": "patent US11000481B2", "about": "“Composite preparation of mosapride and rabeprazole” (KOREA UNITED PHARM. INC., priority 2015, dated 2021)", "key": {"[1]": {"assay": "Stability of rabeprazole sodium depending on pH", "type": "physicochemical", "conditions": "condition of pH 9.0", "source_text": "Accordingly, it was difficult to conduct a dissolution test for the rabeprazole sodium drug in general conditions."}, "[2]": {"conditions": "exposed to an acidic condition of pH 6.8 or below; conventionally known; cited from earlier work"}}, "note": "Where two headings read alike, the source gives them in different places."}
{"smiles": "COCCCOc1ccnc(C[S+]([O-])c2nc3ccccc3[nH]2)c1C", "note": "(centres unmarked) [rabeprazole sodium]", "values": [{"measurement": "Stability of rabeprazole sodium", "setting": "[1]", "value": "highly stable"}, {"measurement": "Stability of rabeprazole sodium", "setting": "[2]", "value": "degraded"}]}
